Reference: US8101656B2, “Use of 2,2-dimethyl-3-(2,4-dichlorophenyl)-2-oxo-1-oxaspiro[4,5]dec-3-en-4-yl butanoate for controlling acarides” (Bayer CropScience AG, priority 2003, dated 2012)

Experiments:
Type in all cases: in vivo
Tetranychus urticae [1] = test: Example C: spray test against spider mites (eggs and nymphs) on black walnut tree; conditions: 0.126 pounds a.i. per acre
Experimental: Pest: Tetranychus Urticae
The compound of the formula (I) (240 SC) was tested at a concentration of 2.02 ounces a.i. per 100 gallons (=0.126 pounds a.i. per acre) in comparison with PYRAMAT (Pyridaben, 75 WP) at an application rate of 0.125 pound a.i. per acre.
The spray mixture (100 gallons per acre) was applied by means of a motor-operated hand-held sprayer.
The test was carried out with one tree per plot and three replication experiments.
The efficacy against spider mites was calculated by counting the live eggs and nymphs on eight leaves per tree before and one, two and six weeks after the application and subsequently calculated using the formula of Henderson & Tilton.

Tetranychus urticae [2] = test: Example A: field spray test against spider mites on hops; conditions: 2000 l/ha
Experimental: Pest: Tetranychus Urticae Crop: Hops The compound of the formula (I) (240SC) was tested at a concentration of 0.0048% a.i. in comparison with cis-cyhalothrin (050EC) at 0.005% a.i. The compound of the formula (I) was used at an early stage of the infestation of the pest, while cis-cyhalothrin was applied when the infestation had progressed to a high level. The spray mixture (2000 l/ha) was applied using a knapsack sprayer operated with compressed air. The plot size was 6 plants, the number of replications per test variant was 2. The activity against spider mites was determined 4, 14 and 21 days (compound of the formula (I)) and 4, 11 and 18 days (cis-cyhalothrin) after the treatment by counting the live animals/leaf (10 leaves/plot) and calculating the efficacy using Abbott's formula.

Eotetranychus hicoriae = test: Example D: spray test against pecan leaf scorch mite on pecan nut tree; conditions: 0.313 pounds a.i. per acre
Experimental: Pest: Eotetranychus Hicoriae
The compound of the formula (I) (240 SC) was tested at an application rate of 0.313 lb a.i. per acre in comparison with ACRAMIT (Bifenazate, 50 WP) at 0.50 pound of a.i. per acre.
The spray mixture (105 gallons per acre) was applied by means of a motor-operated hand-held sprayer.
The experiment was carried out with one tree per plot and four replication experiments.
The efficacy against the pecan leaf scorch mite was determined by counting the number of live mites on five leaves per tree 6 and 13 days after the application and subsequently calculated by means of the Abbott formula.

Tetranychus urticae [3] = test: Example B: field spray test against spider mites on hops; conditions: 2200 l/ha, sprayed once
Experimental: Pest: Tetranycus Urticae Crop: Hops The compound of the formula (I) (240SC) was tested at a concentration of 0.0144% a.i. in comparison with the standard Amitraz (200 EC) at 0.05% a.i. The mixture was sprayed once. The spray mixture (2200 l/ha) was applied using a trailed machine operated by a tractor. The plot size was 60 plants, and 2 replications were carried out per test variant. The activity against spider mites was determined 5, 12, 19 and 34 days after the treatment by counting the live animals/leaf (60 leaves/plot) and calculating the efficacy using Abbott's formula.

## CCC(C)(C)C(=O)OC1=C(c2ccc(Cl)cc2Cl)C(=O)OC12CCCCC2 [Compound of the formula (I) (240 SC), 2,2-Dimethyl-3-(2,4-dichlorophenyl)-2-oxo-1-oxaspiro[4.5]dec-3-en-yl butanoate]
Tetranychus urticae [1]; 1 WAA
  Efficacy in Henderson&Tilton % against NYMPHS: 100%
Tetranychus urticae [1]; 1 WAA (one week after application)
  Efficacy in Henderson&Tilton % against EGGS: 100%
Tetranychus urticae [1]; 2 WAA
  Efficacy in Henderson&Tilton % against EGGS: 100%
  Efficacy in Henderson&Tilton % against NYMPHS: 100%
Tetranychus urticae [1]; 6 WAA
  Efficacy in Henderson&Tilton % against EGGS: 64%
  Efficacy in Henderson&Tilton % against NYMPHS: 83%
Tetranychus urticae [2]; 0.0048% a.i., applied at early stage of infestation, 4 days after treatment
  Efficacy in % Abbott: 90%
Tetranychus urticae [2]; 0.0048% a.i., applied at early stage of infestation, 14 days after treatment
  Efficacy in % Abbott: 94%
Tetranychus urticae [2]; 0.0048% a.i., applied at early stage of infestation, 21 days after treatment
  Efficacy in % Abbott: 93%
Eotetranychus hicoriae; 6 DAA (days after application)
  Efficacy in Abbot %: 100%
Eotetranychus hicoriae; 13 DAA
  Efficacy in Abbot %: 80%
Tetranychus urticae [3]; 0.0144% a.i., 5 days after treatment
  Efficacy in % Abbott: 89.7%
Tetranychus urticae [3]; 0.0144% a.i., 12 days after treatment
  Efficacy in % Abbott: 98.1%
Tetranychus urticae [3]; 0.0144% a.i., 19 days after treatment
  Efficacy in % Abbott: 99.6%

## Cc1ccc(/N=C/N(C)/C=N/c2ccc(C)cc2C)c(C)c1 [Amitraz (200 EC), Amitraz, reference compound]
Tetranychus urticae [3]; 0.05% a.i., 5 days after treatment
  Efficacy in % Abbott: 80.1%
Tetranychus urticae [3]; 0.05% a.i., 12 days after treatment
  Efficacy in % Abbott: 96.3%
Tetranychus urticae [3]; 0.05% a.i., 19 days after treatment
  Efficacy in % Abbott: 92.2%

## CC1(C)C(/C=C(\Cl)C(F)(F)F)C1C(=O)OC(C#N)c1cccc(Oc2ccccc2)c1 (stereo not drawn) [Cis-cyhalothrin (050 EC), cis-cyhalothrin, reference compound]
Tetranychus urticae [2]; 0.005% a.i., applied at high level of infestation, 4 days after treatment
  Efficacy in % Abbott: 59%
Tetranychus urticae [2]; 0.005% a.i., applied at high level of infestation, 11 days after treatment
  Efficacy in % Abbott: 57%
Tetranychus urticae [2]; 0.005% a.i., applied at high level of infestation, 18 days after treatment
  Efficacy in % Abbott: 0%
